The source of these data is US20240239790A1, “7-Morpholino-1,6-Naphthyridin-5-yl Derivatives and Pharmaceutical Compositions Thereof Useful as DNA-PK Inhibitor” (adMare Therapeutics Society, priority 2021, published 2024).

The experiment addresses T1, DNA-PK phosphorylation at Serine 2056 (Homo sapiens, UniProt P78527).
T1 construct: FaDu cells were purchased from ATCC; host or cells: FaDu
The experiment is described as follows: Cellular Assay for Inhibition of DNA-PK Phosphorylation at Serine 2056 in FaDu cells (sandwich ELISA, neocarzinostatin). The format is cell-based. The settings on record: pSer2056 DNA-PK, Table 3. On the procedure:
FaDu cells were purchased from ATCC and maintained in MEM alpha medium (Life Technologies, cat. no. 12561) supplemented with 10% fetal bovine serum, and 1% GlutaMAX at 37° C. supplemented with 5% CO2. 50,000 cells were seeded to each well of a 96-well cell culture plate in 50 μL of culture medium and incubated for 16-24 hours. Three-fold serially diluted compounds were prepared in DMSO. Culture media was used to prepare compound treatments to 0.3% DMSO (dimethyl sulphoxide) content. Compound treatments were added to the cells for 1 hour prior incubation, followed by the addition of neocarzinostatin in fresh culture medium to 1 μg/mL final concentration for an additional 2 hours incubation to induce DNA DSBs (double-strand breaks). DMSO controls were incubated with fresh culture medium alone for the additional two hours incubation. The cells were then lysed and frozen at −20° C. Cell lysates were thawed on wet ice and protein concentrations quantified by BCA Protein Assay (Thermo #23225). Lysis buffer was used to normalize lysates by protein content and all lysates were then investigated by sandwich ELISA by means of DNA-PK-specific antibodies (Abcam ab44815: total DNA-PK; ab124918: phosphoserine-2056 DNA-PK) in sandwich ELISA format on the MSD S600MM platform (MesoScale Discovery). % inhibition was calculated for all data points: =1−(DATA_PT−AVERAGE(DMSO controls))/(AVERAGE(NCS controls)−AVERAGE(DMSO controls)). Logarithm of the molar concentration of compound was plotted against percent inhibition to calculate IC50 values, with curve fit settings for data fit to log(inhibitor) vs. normalized response—Variable slope using curve fit software (GraphPad Prism).

In turn, `CN1CCN(c2ccc(N[C@H]3CC[C@@H](Oc4nc(N5CCOCC5)cc5ncc(NS(C)(=O)=O)cc45)CC3)nc2)CC1` [LFA2001, N-[5-[4-[[5-(4-methylpiperazin-1-yl)-2-pyridyl]amino]cyclohexoxy]-7-morpholino-1,6-naphthyridin-3-yl]methanesulfonamide] yielded an IC50 below 0.1 µM.

The compound `CS(=O)(=O)Nc1cnc2cc(N3CCOCC3)nc(O[C@H]3CC[C@@H](Nc4cc5c(cn4)CNCC5)CC3)c2c1` [LFA2002, N-[7-morpholino-5-[4-(5,6,7,8-tetrahydro-2,7-naphthyridin-3-ylamino)cyclohexoxy]-1,6-naphthyridin-3-yl]methanesulfonamide] came in with an IC50 of 0.1 to 1 µM.

For `CS(=O)(=O)Nc1cnc2cc(N3CCOCC3)nc(O[C@H]3CC[C@@H](Nc4ccc5c(n4)CCNC5)CC3)c2c1` [LFA2003, N-[7-morpholino-5-[4-(5,6,7,8-tetrahydro-1,6-naphthyridin-2-ylamino)cyclohexoxy]-1,6-naphthyridin-3-yl]methanesulfonamide], the concentration for half-maximal inhibition (IC50) lay in the range of 0.1 to 1 µM.

The compound `CS(=O)(=O)Nc1cnc2cc(N3CCOCC3)nc(O[C@H]3CC[C@@H](Nc4ncc5c(n4)CNCC5)CC3)c2c1` [LFA2004, N-[7-morpholino-5-[4-(5,6,7,8-tetrahydropyrido[3,4-d]pyrimidin-2-ylamino)cyclohexoxy]-1,6-naphthyridin-3-yl]methanesulfonamide] gave an IC50 of 0.1 to 1 µM.

`CS(=O)(=O)Nc1cnc2cc(N3CCOCC3)nc(O[C@H]3CC[C@@H](Nc4ncc5c(n4)CCNC5)CC3)c2c1` [LFA2005, N-[7-morpholino-5-[4-(5,6,7,8-tetrahydropyrido[4,3-d]pyrimidin-2-ylamino)cyclohexoxy]-1,6-naphthyridin-3-yl]methanesulfonamide] gave an IC50 of 0.1 to 1 µM.

Compound `CN1CCC(Oc2ccc(N[C@H]3CC[C@@H](Oc4nc(N5CCOCC5)cc5ncc(NS(C)(=O)=O)cc45)CC3)nc2)C1` (some centres unmarked) [LFA2006, N-[5-[4-[[5-(1-methylpyrrolidin-3-yl)oxy-2-pyridyl]amino]cyclohexoxy]-7-morpholino-1,6-naphthyridin-3-yl]methanesulfonamide] displayed a half-inhibitory concentration (IC50) below 0.1 µM.

The compound `CN1CCc2nc(NC3CCC(Oc4nc(N5CCOCC5)cc5ncc(NS(C)(=O)=O)cc45)CC3)ncc2C1` (centres unmarked) [LFA2007, N-[5-[4-[(6-methyl-7,8-dihydro-5H-pyrido[4,3-d]pyrimidin-2-yl)amino]cyclohexoxy]-7-morpholino-1,6-naphthyridin-3-yl]methanesulfonamide] registered an IC50 below 0.1 µM.

`CN1CCc2nc(N[C@H]3CC[C@@H](Oc4nc(N5CCOCC5)cc5ncc(NS(C)(=O)=O)cc45)CC3)ccc2C1` [LFA2008, N-[5-[4-[(6-methyl-7,8-dihydro-5H-1,6-naphthyridin-2-yl)amino]cyclohexoxy]-7-morpholino-1,6-naphthyridin-3-yl]methanesulfonamide]: the 50% inhibitory concentration (IC50) is below 0.1 µM.

In turn, `Oc1cnc2cc(N3CCOCC3)nc(O[C@H]3CC[C@@H](Nc4ncc(N5CCN(CC(F)F)CC5)cn4)CC3)c2c1` [LFA2012] displayed an IC50 below 0.1 µM.

Compound `CS(=O)(=O)Nc1cnc2cc(N3CCOCC3)nc(O[C@H]3CC[C@@H](Nc4ncc(N5CCN(CCF)CC5)cn4)CC3)c2c1` [LFA2013] displayed a 50% inhibitory concentration (IC50) below 0.1 µM.

Consider `CS(=O)(=O)Nc1cnc2cc(N3CCOCC3)nc(O[C@H]3CC[C@@H](Nc4ncc(N5CCNCC5)cn4)CC3)c2c1` [LFA2014, N-[7-morpholino-5-[4-[(5-piperazin-1-ylpyrimidin-2-yl)amino]cyclohexoxy]-1,6-naphthyridin-3-yl]methanesulfonamide], for which the IC50 was in the range of 0.1 to 1 µM.

Regarding `CS(=O)(=O)Nc1cnc2cc(N3CCOCC3)nc(O[C@H]3CC[C@@H](Nc4ncc(N5CC6CNCC6C5)cn4)CC3)c2c1` (some centres unmarked) [LFA2015, N-[5-[4-[[5-(2,3,3a,4,6,6a-hexahydro-1H-pyrrolo[3,4-c]pyrrol-5-yl)pyrimidin-2-yl]amino]cyclohexoxy]-7-morpholino-1,6-naphthyridin-3-yl]methanesulfonamide], the IC50 lay within 0.1 to 1 µM.

For the compound `CS(=O)(=O)Nc1cnc2cc(N3CCOCC3)nc(O[C@H]3CC[C@@H](Nc4ncc(N5CC6CCC(C5)N6)cn4)CC3)c2c1` [LFA2016, N-[5-[4-[[5-(3,8-diazabicyclo[3.2.1]octan-3-yl)pyrimidin-2-yl]amino]cyclohexoxy]-7-morpholino-1,6-naphthyridin-3-yl]methanesulfonamide], the concentration for half-maximal inhibition (IC50) lay within 0.1 to 1 µM.

`CS(=O)(=O)Nc1cnc2cc(N3CCOCC3)nc(O[C@H]3CC[C@@H](Nc4ncc(N5CCN(CC(F)(F)F)CC5)cn4)CC3)c2c1` [LFA2017, N-[7-morpholino-5-[4-[[5-[4-(2,2,2-trifluoroethyl)piperazin-1-yl]pyrimidin-2-yl]amino]cyclohexoxy]-1,6-naphthyridin-3-yl]methanesulfonamide] yielded an IC50 below 0.1 µM.

Consider `CS(=O)(=O)Nc1cnc2cc(N3CCOCC3)nc(O[C@H]3CC[C@@H](Nc4ncc(N5CCN(CC(F)F)CC5)cn4)CC3)c2c1` [LFA2018, N-[5-[4-[[5-[4-(2,2-difluoroethyl)piperazin-1-yl]pyrimidin-2-yl]amino]cyclohexoxy]-7-morpholino-1,6-naphthyridin-3-yl]methanesulfonamide], for which the IC50 is below 0.1 µM.

As for `CS(=O)(=O)Nc1cnc2cc(N3CCOCC3)nc(O[C@H]3CC[C@@H](Nc4ncc(N5CCN(C6COC6)CC5)cn4)CC3)c2c1` [LFA2019, N-[7-morpholino-5-[4-[[5-[4-(oxetan-3-yl)piperazin-1-yl]pyrimidin-2-yl]amino]cyclohexoxy]-1,6-naphthyridin-3-yl]methanesulfonamide], the IC50 is below 0.1 µM.

For `CS(=O)(=O)Nc1cnc2cc(N3CCOCC3)nc(O[C@H]3CC[C@@H](Nc4ncc(CN5CCOCC5)cn4)CC3)c2c1` [LFA2020, N-[7-morpholino-5-[4-[[5-(morpholinomethyl)pyrimidin-2-yl]amino]cyclohexoxy]-1,6-naphthyridin-3-yl]methanesulfonamide], the IC50 was below 0.1 µM.

`CS(=O)(=O)Nc1cnc2cc(N3CCOCC3)nc(O[C@H]3CC[C@@H](Nc4ncc(C5=CCNCC5)cn4)CC3)c2c1` [LFA2021, N-[7-morpholino-5-[4-[[5-(1,2,3,6-tetrahydropyridin-4-yl)pyrimidin-2-yl]amino]cyclohexoxy]-1,6-naphthyridin-3-yl]methanesulfonamide]: the 50% inhibitory concentration (IC50) was 0.1 to 1 µM.

In the case of `CS(=O)(=O)Nc1cnc2cc(N3CCOCC3)nc(O[C@H]3CC[C@@H](Nc4ncc(OCCN5CCNCC5)cn4)CC3)c2c1` [LFA2022, N-[7-morpholino-5-[4-[[5-(2-piperazin-1-ylethoxy)pyrimidin-2-yl]amino]cyclohexoxy]-1,6-naphthyridin-3-yl]methanesulfonamide], the IC50 is below 0.1 µM.

`CS(=O)(=O)Nc1cnc2cc(N3CCOCC3)nc(O[C@H]3CC[C@@H](Nc4ncc(OCCN5CCOCC5)cn4)CC3)c2c1` [LFA2023, N-[7-morpholino-5-[4-[[5-(2-morpholinoethoxy)pyrimidin-2-yl]amino]cyclohexoxy]-1,6-naphthyridin-3-yl]methanesulfonamide]: the IC50 was below 0.1 µM.

`CN(C)CCOc1cnc(N[C@H]2CC[C@@H](Oc3nc(N4CCOCC4)cc4ncc(NS(C)(=O)=O)cc34)CC2)nc1` [LFA2024, N-[5-[4-[[5-[2-(dimethylamino)ethoxy]pyrimidin-2-yl]amino]cyclohexoxy]-7-morpholino-1,6-naphthyridin-3-yl]methanesulfonamide]: the IC50 lay in the range of 0.1 to 1 µM.

The compound `CN1CCC(Oc2cnc(N[C@H]3CC[C@@H](Oc4nc(N5CCOCC5)cc5ncc(NS(C)(=O)=O)cc45)CC3)nc2)C1` (some centres unmarked) [LFA2025, N-[5-[4-[[5-(1-methylpyrrolidin-3-yl)oxypyrimidin-2-yl]amino]cyclohexoxy]-7-morpholino-1,6-naphthyridin-3-yl]methanesulfonamide] returned an IC50 of 0.1 to 1 µM.

For the compound `CN1CCN(CCOc2ccnc(N[C@H]3CC[C@@H](Oc4nc(N5CCOCC5)cc5ncc(NS(C)(=O)=O)cc45)CC3)n2)CC1` [LFA2026, N-[5-[4-[[4-[2-(4-methylpiperazin-1-yl)ethoxy]pyrimidin-2-yl]amino]cyclohexoxy]-7-morpholino-1,6-naphthyridin-3-yl]methanesulfonamide], the half-inhibitory concentration (IC50) fell in the range of 0.1 to 1 µM.

Turning to `CS(=O)(=O)Nc1cnc2cc(N3CCOCC3)nc(O[C@H]3CC[C@@H](Nc4ncc(OCCN)cn4)CC3)c2c1` [LFA2027, N-[5-[4-[[5-(2-aminoethoxy)pyrimidin-2-yl]amino]cyclohexoxy]-7-morpholino-1,6-naphthyridin-3-yl]methanesulfonamide], the IC50 was below 0.1 µM.

With `CS(=O)(=O)Nc1cnc2cc(N3CCOCC3)nc(O[C@H]3CC[C@@H](Nc4ncc(OCCO)cn4)CC3)c2c1` [LFA2028, N-[5-[4-[[5-(2-hydroxyethoxy)pyrimidin-2-yl]amino]cyclohexoxy]-7-morpholino-1,6-naphthyridin-3-yl]methanesulfonamide], the 50% inhibitory concentration (IC50) was below 0.1 µM.

With `CS(=O)(=O)Nc1cnc2cc(N3CCOCC3)nc(O[C@H]3CC[C@@H](Nc4ncc(N5CCOCC5)cn4)CC3)c2c1` [LFA2029, N-[7-morpholino-5-[4-[(5-morpholinopyrimidin-2-yl)amino]cyclohexoxy]-1,6-naphthyridin-3-yl]methanesulfonamide], the half-inhibitory concentration (IC50) was below 0.1 µM.
